The text below walks through data of patent US12077503B2, “Substituted cyclic amides and their use as herbicides” (FMC CORPORATION, priority 2015, dated 2024).

Where two headings read alike, the source gives them in different places.

Assay type in all cases: in vivo
Test [1] has as its system giant foxtail (Setaria faberii). The test is described as follows: Test A postemergence. The conditions noted are these: Setaria faberi, post-emergence, 240 h, 125 g ai/ha, postemergence; visual injury after approximately 10 d; 0 to 100 scale (0 no effect, 100 complete control); read-out: Plant response rating, Foxtail, Giant. Put shortly:
(§1)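 Preemergence directed soil spray on seeded pots, or postemergence application to plants 2–10 cm, one- to two-leaf. Solvent mixture non-phytotoxic, with surfactant. Scored ~10 d later, visually, 0–100 vs untreated.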

Test [2] deals with corn (Zea mays). The test is described as follows: Test A postemergence. The conditions noted are these: Zea mays, post-emergence, 240 h, 125 g ai/ha, postemergence; visual injury after approximately 10 d; 0 to 100 scale (0 no effect, 100 complete control). Put shortly: as §1
Test [3] has as its system barnyardgrass (Echinochloa crus-galli). The test is described as follows: Test A postemergence. The settings on record: Echinochloa crus-galli, post-emergence, 240 h, 125 g ai/ha, postemergence; visual injury after approximately 10 d; 0 to 100 scale (0 no effect, 100 complete control); read-out: Plant response rating, Barnyardgrass. Put shortly: as §1
The subject of test [4] is pigweed (Amaranthus retroflexus). Description: Test A postemergence. The settings on record: Amaranthus retroflexus, post-emergence, 240 h, 125 g ai/ha, postemergence; visual injury after approximately 10 d; 0 to 100 scale (0 no effect, 100 complete control); read-out: Plant response rating, Pigweed. Put shortly:
as §1

Test [5] relates to Kochia (Kochia scoparia). Description: Test A postemergence. The conditions noted are these: Bassia scoparia, post-emergence, 240 h, 125 g ai/ha, postemergence; visual injury after approximately 10 d; 0 to 100 scale (0 no effect, 100 complete control); read-out: Plant response rating, Kochia. Put shortly:
as §1

For test [6], the system named is Galium (catchweed bedstraw, Galium aparine). Description: Test A postemergence. The settings on record: Galium, post-emergence, 240 h, 125 g ai/ha, postemergence; visual injury after approximately 10 d; 0 to 100 scale (0 no effect, 100 complete control); read-out: Plant response rating, Galium. Put shortly: as §1
The subject of test [7] is wheat (Triticum aestivum). The test is described as follows: Test A postemergence. The settings on record: Triticum aestivum, post-emergence, 240 h, 125 g ai/ha, postemergence; visual injury after approximately 10 d; 0 to 100 scale (0 no effect, 100 complete control); read-out: Plant response rating, Wheat. Put shortly: as §1
For test [8], the system named is blackgrass (Alopecurus myosuroides). The test is described as follows: Test A postemergence. The conditions noted are these: Alopecurus myosuroides, post-emergence, 240 h, 125 g ai/ha, postemergence; visual injury after approximately 10 d; 0 to 100 scale (0 no effect, 100 complete control); read-out: Plant response rating, Blackgrass. Put shortly: as §1
The test system of test [9] is ragweed (common ragweed, Ambrosia elatior). Description: Test A postemergence. The settings on record: Ambrosia artemisiifolia, post-emergence, 240 h, 125 g ai/ha, postemergence; visual injury after approximately 10 d; 0 to 100 scale (0 no effect, 100 complete control); read-out: Plant response rating, Ragweed. Put shortly: as §1
The subject of test [10] is ryegrass, Italian (Italian ryegrass, Lolium multiflorum). The test is described as follows: Test A postemergence. The settings on record: Lolium multiflorum, post-emergence, 240 h, 125 g ai/ha, postemergence; visual injury after approximately 10 d; 0 to 100 scale (0 no effect, 100 complete control); read-out: Plant response rating, Ryegrass, Italian. Put shortly:
as §1

The subject of test [11] is giant foxtail (Setaria faberii). Description: Test A preemergence. The settings on record: Setaria faberi, pre-emergence, 240 h; for pest or weed control at 125 g/ha: 125 g ai/ha, visual rating after approx. 10 d, 0 to 100 scale where 0 is no effect and 100 is complete control; for pest or weed control at 500 g/ha: 500 g ai/ha. Put shortly:
as §1

The subject of test [12] is pigweed (Amaranthus retroflexus). Description: Test A preemergence. The conditions noted are these: Amaranthus retroflexus, pre-emergence, 240 h; for pest or weed control at 125 g/ha: 125 g ai/ha, visual rating after approx. 10 d, 0 to 100 scale where 0 is no effect and 100 is complete control; for pest or weed control at 500 g/ha: 500 g ai/ha.
Test [13] concerns Kochia (Kochia scoparia). The test is described as follows: Test A preemergence. The conditions noted are these: Bassia scoparia, pre-emergence, 240 h; for pest or weed control at 125 g/ha: 125 g ai/ha, visual rating after approx. 10 d, 0 to 100 scale where 0 is no effect and 100 is complete control; for pest or weed control at 500 g/ha: 500 g ai/ha. Put shortly:
as §1

For test [14], the system named is ragweed (common ragweed, Ambrosia elatior). The test is described as follows: Test A preemergence. The conditions noted are these: Ambrosia artemisiifolia, pre-emergence, 240 h; for pest or weed control at 125 g/ha: 125 g ai/ha, visual rating after approx. 10 d, 0 to 100 scale where 0 is no effect and 100 is complete control; for pest or weed control at 500 g/ha: 500 g ai/ha. Put shortly: as §1

Test [15] relates to ryegrass, Italian (Italian ryegrass, Lolium multiflorum). Description: Test A preemergence. The settings on record: Lolium multiflorum, pre-emergence, 240 h; for pest or weed control at 125 g/ha: 125 g ai/ha, visual rating after approx. 10 d, 0 to 100 scale where 0 is no effect and 100 is complete control; for pest or weed control at 500 g/ha: 500 g ai/ha. Put shortly: as §1
Where [16] appears, read: preemergence, read-out: Plant response rating, Foxtail, Giant.
Setting [17] is: Preemergence, visual injury vs untreated controls after approximately 10 d, read-out: Foxtail, Giant plant response rating (0 to 100 scale where 0 is no effect and 100 is complete control).
Where [18] appears, read: preemergence, read-out: Plant response rating, Pigweed.
Setting [19] is: Preemergence, visual injury vs untreated controls after approximately 10 d, read-out: Pigweed plant response rating (0 to 100 scale where 0 is no effect and 100 is complete control).
The mark [20] stands for this setting: preemergence, read-out: Plant response rating, Kochia.
The mark [21] stands for this setting: Preemergence, visual injury vs untreated controls after approximately 10 d, read-out: Kochia plant response rating (0 to 100 scale where 0 is no effect and 100 is complete control).
The mark [22] stands for this setting: preemergence, read-out: Plant response rating, Ragweed.
The mark [23] stands for this setting: Preemergence, visual injury vs untreated controls after approximately 10 d, read-out: Ragweed plant response rating (0 to 100 scale where 0 is no effect and 100 is complete control).
Setting [24] is: preemergence, read-out: Plant response rating, Ryegrass, Italian.
The mark [25] stands for this setting: Preemergence, visual injury vs untreated controls after approximately 10 d, read-out: Ryegrass, Italian plant response rating (0 to 100 scale where 0 is no effect and 100 is complete control).

Take `CS(=O)(=O)c1ccccc1NC(=O)[C@H]1C(=O)NC[C@@H]1c1ccc(OC(F)F)cc1` [Compound 787]: the pest or weed control at 125 g/ha is 20% in test [1]; 30% in test [3]; 60% in test [4]; 60% in test [5]; 60% in [6]; 0% in test [8]. For the same compound, the pest or weed control at 125 g/ha in [9] is 50%; in test [10], 20%; in test [11] (setting [16]), 70%; in test [12] (setting [18]), 50%; in [13] (setting [20]), 80%; in test [14] (setting [22]), 70%. The pest or weed control at 125 g/ha in test [15] (setting [24]) is 0%. For the same compound, the Corn plant response rating (crop injury, 0 = no effect, 100 = complete kill) at 125 g/ha in [2] turned out to be 0%. The plant injury at 125 g/ha in [7] was found to be 0%. Moreover, the pest or weed control at 500 g/ha in test [11] (setting [17]) amounted to 90%; in test [12] (setting [19]) it was 80%; in test [13] (setting [21]), 90%; in [14] (setting [23]), 70%; in test [15] (setting [25]), 0%.
Regarding `CN1C[C@H](c2ccc3c(c2)CCC3)[C@@H](C(=O)Nc2ccccc2S(C)(=O)=O)C1=O` [Compound 744], the pest or weed control at 125 g/ha in test [1] came to 80%; in test [3] it was 60%; in test [4], 0%; in [5], 30%; in [6], 30%; in test [8], 20%. For the same compound, the pest or weed control at 125 g/ha in test [9] amounted to 20%; in [10], 30%; in test [11] (setting [16]) it was 90%; in [12] (setting [18]) it was 20%; in test [13] (setting [20]), 60%; in test [14] (setting [22]), 0%. Moreover, in test [15] (setting [24]), the pest or weed control at 125 g/ha was 0%. The compound further came in with a Corn plant response rating (crop injury, 0 = no effect, 100 = complete kill) at 125 g/ha in test [2] of 40%. Moreover, the plant injury at 125 g/ha in test [7] is 50%. Moreover, the pest or weed control at 500 g/ha in test [11] (preemergence, 0 to 100 scale, 0 = no effect, 100 = complete control, read-out: Plant response rating, Foxtail, Giant) stood at 90%; in [12] (preemergence, 0 to 100 scale, 0 = no effect, 100 = complete control, read-out: Plant response rating, Pigweed), 50%; in test [13] (preemergence, 0 to 100 scale, 0 = no effect, 100 = complete control, read-out: Plant response rating, Kochia), 90%; in test [14] (preemergence, 0 to 100 scale, 0 = no effect, 100 = complete control, read-out: Plant response rating, Ragweed), 50%; in [15] (preemergence, 0 to 100 scale, 0 = no effect, 100 = complete control, read-out: Plant response rating, Ryegrass, Italian) it was 80%.
Regarding `CN1C[C@H](c2cccc([N+](=O)[O-])c2)[C@@H](C(=O)Nc2cccc(F)c2F)C1=O` (racemic) [Compound 776], the pest or weed control at 125 g/ha is 80% in [1]; 80% in [3]; 0% in test [4]; 20% in test [5]; 20% in [6]; 30% in test [8]. Besides, the pest or weed control at 125 g/ha came out at 0% in test [9]; 20% in test [10]; 90% in test [11] (setting [16]); 30% in test [12] (setting [18]); 50% in [13] (setting [20]); 30% in [14] (setting [22]). Moreover, in test [15] (setting [24]), the pest or weed control at 125 g/ha worked out at 20%. The Corn plant response rating (crop injury, 0 = no effect, 100 = complete kill) at 125 g/ha in test [2] came out at 30%. The plant injury at 125 g/ha in [7] worked out at 30%. The pest or weed control at 500 g/ha in test [11] (setting [17]) was found to be 100%; in test [12] (setting [19]) it was 60%; in [13] (setting [21]) it was 60%; in test [14] (setting [23]), 80%; in [15] (setting [25]), 50%.
